In brackets after ≈: the same amount, converted by molar mass.
Key:
[1] = system: Lactobacillus plantarum Inducia DSM 21379; test: Antibiotic resistance, E-test MIC; assay type: cell-based; settings: for MIC: Lactiplantibacillus plantarum, DSM21379, read-out: MIC (minimal inhibitory concentration); for MIC (minimal inhibitory concentration): E-test strips, L. plantarum Inducia DSM 21379
Protocol: Method. Lactobacillus plantarum Inducia DSM 21379 was tested using antibiotic strips of the E-test (AB Biodisk, Solna).

[2] = system: Control strain L. plantarum DSM 21380; test: Antibiotic resistance, E-test MIC, control strain; assay type: cell-based, Lactobacillus plantarum; settings: for MIC: Lactiplantibacillus plantarum, DSM21380, E-test strips, read-out: MIC (minimal inhibitory concentration); for MIC (minimal inhibitory concentration): E-test strips
[3] = in vivo, po; cited from earlier work

Row | Compound | MIC [1] | MIC [2] | MIC (minimal inhibitory concentration) [1] | MIC (minimal inhibitory concentration) [2] | consumed amount absorbed from intestine into bloodstream [3]
1 | CC1(C)S[C@@H]2[C@H](NC(=O)[C@H](N)c3ccccc3)C(=O)N2[C@H]1C(=O)O [Ampicillin] | 0.19 µg/mL (≈ 0.544 µM) | 0.25 µg/mL (≈ 0.715 µM) |  |  | 
2 | O=C(N[C@H](CO)[C@H](O)c1ccc([N+](=O)[O-])cc1)C(Cl)Cl [Chloramphenicol] | 2 µg/mL (≈ 6.19 µM) | 2 µg/mL (≈ 6.19 µM) |  |  | 
3 | CCC[C@@H]1C[C@@H](C(=O)N[C@@H]([C@H]2O[C@H](SC)[C@H](O)[C@@H](O)[C@H]2O)[C@H](C)Cl)N(C)C1 [Clindamycin] | 0.016 µg/mL (≈ 0.0376 µM) | 0.032 µg/mL (≈ 0.0753 µM) |  |  | 
4 | CC[C@H]1OC(=O)[C@H](C)[C@@H](O[C@H]2C[C@@](C)(OC)[C@@H](O)[C@H](C)O2)[C@H](C)[C@@H](O[C@@H]2O[C@H](C)C[C@H](N(C)C)[C@H]2O)[C@](C)(O)C[C@@H](C)C(=O)[C@H](C)[C@@H](O)[C@]1(C)O [Erytromycin] |  |  | 0.25 µg/mL (≈ 0.341 µM) | 0.19 µg/mL (≈ 0.259 µM) | 
5 | NCCCCN [Putrescine] |  |  |  |  | 20%
6 | [H]/N=C(/N)N[C@H]1[C@H](O)[C@@H](O)[C@H](O[C@@H]2O[C@@H](C)[C@](O)(C=O)[C@H]2O[C@@H]2O[C@@H](CO)[C@H](O)[C@@H](O)[C@@H]2NC)[C@@H](N/C(N)=N\[H])[C@@H]1O [Streptomycin] | 6 µg/mL (≈ 10.3 µM) | 16 µg/mL (≈ 27.5 µM) |  |  | 
7 | CN(C)[C@@H]1C(O)=C(C(N)=O)C(=O)[C@@]2(O)C(O)=C3C(=O)c4c(O)cccc4[C@@](C)(O)[C@H]3C[C@@H]12 [Tetracycline] | 6 µg/mL (≈ 13.5 µM) | 8 µg/mL (≈ 18 µM) |  |  | 
8 | Cipro/ofloxacin |  |  | 32 µg/mL | 32 µg/mL | 
9 | Gentamicin |  |  | 1 µg/mL | 1.5 µg/mL | 
